Results as given in ChEMBL document CHEMBL1909046, “DrugMatrix in vitro pharmacology data”.

What was measured:
[1] = molecular target: T1, Alpha-1B adrenergic receptor (Rattus norvegicus, UniProt P15823); assay: DRUGMATRIX: Alpha-1B adrenergic receptor radioligand binding (ligand: prazosin); assay type: cell membranes, Wistar, Liver, Membrane; conditions: Not Active = under 50% inhibition at 10 µM
T1 sequence (P15823 whole entry): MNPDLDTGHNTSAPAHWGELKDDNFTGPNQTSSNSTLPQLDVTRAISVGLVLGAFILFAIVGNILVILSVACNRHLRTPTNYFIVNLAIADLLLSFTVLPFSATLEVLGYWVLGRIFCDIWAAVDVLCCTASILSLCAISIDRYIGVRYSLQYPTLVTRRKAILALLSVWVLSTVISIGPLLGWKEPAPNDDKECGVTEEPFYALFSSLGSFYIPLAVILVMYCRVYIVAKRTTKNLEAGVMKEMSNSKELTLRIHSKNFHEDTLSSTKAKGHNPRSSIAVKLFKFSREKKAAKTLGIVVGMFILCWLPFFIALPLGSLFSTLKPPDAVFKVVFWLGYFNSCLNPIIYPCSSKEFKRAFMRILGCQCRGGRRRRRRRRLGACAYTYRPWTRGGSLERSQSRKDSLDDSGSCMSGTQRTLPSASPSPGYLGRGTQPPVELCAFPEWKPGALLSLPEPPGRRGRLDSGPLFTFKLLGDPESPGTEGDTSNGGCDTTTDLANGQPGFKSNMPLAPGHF

[2] = molecular target: Sodium-dependent noradrenaline transporter (Homo sapiens, UniProt P23975); assay: DRUGMATRIX: Norepinephrine Transporter radioligand binding (ligand: [125I] RTI-55); assay type: cell membranes, MDCK, Membrane; conditions: mdck; Not Active = under 50% inhibition at 10 µM
[3] = DRUGMATRIX: Glutamate, AMPA radioligand binding (ligand: [3H] AMPA); assay type: cell membranes, Rattus norvegicus, Wistar, Cerebral cortex, Membrane; conditions: Not Active = under 50% inhibition at 10 µM
[4] = DRUGMATRIX: Glutamate, NMDA, Phencyclidine radioligand binding (ligand: [3H] TCP); assay type: cell membranes, Rattus norvegicus, Wistar, Cerebral cortex, Membrane; conditions: Not Active = under 50% inhibition at 10 µM
[5] = molecular target: Mitogen-activated protein kinase 3 (Homo sapiens, UniProt P27361); assay: DRUGMATRIX: Protein Serine/Threonine Kinase, ERK1 enzyme inhibition (substrate: Myelin Basic Protein); design: species or system Escherichia coli; conditions: Not Active = under 50% inhibition at 10 µM
[6] = molecular target: Adenosine receptor A2a (Homo sapiens, UniProt P29274); assay: DRUGMATRIX: Adenosine A2A radioligand binding (ligand: […]); assay type: cell membranes, HEK293, Membrane; conditions: hek293; Not Active = under 50% inhibition at 10 µM
Chain of Adenosine receptor A2a (P29274 whole entry): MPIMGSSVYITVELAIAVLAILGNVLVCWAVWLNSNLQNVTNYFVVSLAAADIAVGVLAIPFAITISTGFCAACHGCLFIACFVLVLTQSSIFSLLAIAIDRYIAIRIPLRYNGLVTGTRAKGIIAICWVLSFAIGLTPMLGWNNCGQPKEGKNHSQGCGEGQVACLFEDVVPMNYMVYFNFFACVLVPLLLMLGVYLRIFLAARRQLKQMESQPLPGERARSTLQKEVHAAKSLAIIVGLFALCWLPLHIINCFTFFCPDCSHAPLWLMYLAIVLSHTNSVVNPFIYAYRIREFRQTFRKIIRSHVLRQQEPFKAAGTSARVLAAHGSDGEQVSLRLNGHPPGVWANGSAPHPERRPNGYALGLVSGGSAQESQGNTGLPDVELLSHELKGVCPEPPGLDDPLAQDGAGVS

Chain of Mitogen-activated protein kinase 3 (P27361 whole entry): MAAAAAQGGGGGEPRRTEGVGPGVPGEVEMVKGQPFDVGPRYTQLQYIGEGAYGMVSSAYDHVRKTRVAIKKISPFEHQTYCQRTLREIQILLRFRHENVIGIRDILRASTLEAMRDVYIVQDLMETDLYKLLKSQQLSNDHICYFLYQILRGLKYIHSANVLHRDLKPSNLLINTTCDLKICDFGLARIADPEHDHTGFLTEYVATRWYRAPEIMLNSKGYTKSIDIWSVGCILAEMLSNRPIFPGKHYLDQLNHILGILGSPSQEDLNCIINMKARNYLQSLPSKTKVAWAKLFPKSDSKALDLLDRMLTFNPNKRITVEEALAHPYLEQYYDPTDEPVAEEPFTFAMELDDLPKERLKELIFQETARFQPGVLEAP
Chain of Sodium-dependent noradrenaline transporter (P23975 whole entry): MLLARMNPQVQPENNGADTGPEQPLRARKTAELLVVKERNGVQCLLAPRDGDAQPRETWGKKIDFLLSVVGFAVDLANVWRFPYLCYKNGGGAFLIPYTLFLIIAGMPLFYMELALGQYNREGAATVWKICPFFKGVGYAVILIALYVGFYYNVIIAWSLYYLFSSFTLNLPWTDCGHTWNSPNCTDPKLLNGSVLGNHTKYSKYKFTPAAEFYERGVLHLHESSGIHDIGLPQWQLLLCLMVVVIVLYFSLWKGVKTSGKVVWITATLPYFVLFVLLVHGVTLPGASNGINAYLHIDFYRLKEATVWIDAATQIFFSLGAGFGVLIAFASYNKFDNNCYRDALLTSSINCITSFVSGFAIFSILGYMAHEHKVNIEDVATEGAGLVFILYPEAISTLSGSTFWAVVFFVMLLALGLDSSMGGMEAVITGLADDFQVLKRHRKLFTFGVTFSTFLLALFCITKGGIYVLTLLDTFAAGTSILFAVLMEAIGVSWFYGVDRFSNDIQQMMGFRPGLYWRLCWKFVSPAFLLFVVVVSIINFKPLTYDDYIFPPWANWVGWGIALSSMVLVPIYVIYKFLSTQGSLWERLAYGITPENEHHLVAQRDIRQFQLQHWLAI

C=C(CC)C(=O)c1ccc(OCC(=O)O)c(Cl)c1Cl [ETHACRYNIC ACID]
Not Active: IC50 [1] | IC50 [2] | IC50 [3] | Ki [3] | IC50 [4] | Ki [4] | IC50 [5] | IC50 [6]

CC(C(=O)O)c1ccc(-c2ccccc2)c(F)c1 (stereo not drawn) [FLURBIPROFEN]
Not Active: IC50 [1] | IC50 [2] | IC50 [3] | Ki [3] | IC50 [4] | Ki [4] | IC50 [5] | IC50 [6]

COc1ccccc1OCC(O)COC(N)=O (stereo not drawn) [METHOCARBAMOL]
Not Active: IC50 [1] | IC50 [2] | IC50 [3] | Ki [3] | IC50 [4] | Ki [4] | IC50 [5] | IC50 [6]

CC(C(=O)O)c1ccc(CC2CCCC2=O)cc1 (stereo not drawn) [LOXOPROFEN]
Not Active: IC50 [1] | IC50 [2] | IC50 [3] | Ki [3] | IC50 [4] | Ki [4] | IC50 [5] | IC50 [6]

CCCCC1C(=O)N(c2ccccc2)N(c2ccccc2)C1=O [PHENYLBUTAZONE]
Not Active: IC50 [1] | IC50 [2] | IC50 [3] | Ki [3] | IC50 [4] | Ki [4] | IC50 [5] | IC50 [6]

CCN[C@@H](C)Cc1cccc(C(F)(F)F)c1 [DEXFENFLURAMINE]
Not Active: IC50 [1] | IC50 [2] | IC50 [3] | Ki [3] | IC50 [4] | Ki [4] | IC50 [5] | IC50 [6]

COc1ccccc1OCC(O)CO (stereo not drawn) [GUAIFENESIN]
Not Active: IC50 [1] | IC50 [2] | IC50 [3] | Ki [3] | IC50 [4] | Ki [4] | IC50 [5] | IC50 [6]

CCC(=O)O[C@H]1[C@H](O[C@@H]2[C@@H](C)[C@H](O[C@H]3C[C@@](C)(OC)[C@@H](O)[C@H](C)O3)[C@@H](C)C(=O)O[C@H](CC)[C@@](C)(O)[C@H](O)[C@@H](C)C(=O)[C@H](C)C[C@@]2(C)O)O[C@H](C)C[C@@H]1N(C)C [ERYTHROMYCIN PROPIONATE]
Not Active: IC50 [1] | IC50 [2] | IC50 [3] | Ki [3] | IC50 [4] | Ki [4] | IC50 [5] | IC50 [6]

C=C1/C(=C\C=C2/CCC[C@]3(C)[C@@H]([C@H](C)CCCC(C)C)CC[C@@H]23)C[C@@H](O)C[C@@H]1O [ALFACALCIDOL]
Not Active: IC50 [1] | IC50 [3] | Ki [3] | IC50 [4] | Ki [4] | IC50 [5] | IC50 [6]

CS(=O)(=O)OCCCCOS(C)(=O)=O [BUSULFAN]
Not Active: IC50 [1] | IC50 [2] | IC50 [3] | Ki [3] | IC50 [4] | Ki [4] | IC50 [5] | IC50 [6]

C[C@]12CCC(=O)C=C1CC[C@@H]1[C@@H]2[C@@H](O)C[C@@]2(C)[C@H]1CC[C@]2(O)C(=O)CO [HYDROCORTISONE]
Not Active: IC50 [1] | IC50 [3] | Ki [3] | IC50 [4] | Ki [4] | IC50 [5] | IC50 [6]

POLYVINYL ALCOHOL
Not Active: IC50 [1] | Ki [1] | IC50 [2] | Ki [2] | IC50 [3] | Ki [3] | IC50 [4] | Ki [4] | IC50 [5] | Ki [5] | IC50 [6] | Ki [6]

COBALT(II) ACETYLACETONATE
Not Active: IC50 [1] | Ki [1] | IC50 [2] | Ki [2] | IC50 [3] | Ki [3] | IC50 [4] | Ki [4] | IC50 [5] | Ki [5] | IC50 [6] | Ki [6]

Nc1nc(N)nc(NC2CC2)n1 [CYROMAZINE]
Not Active: IC50 [1] | IC50 [2] | IC50 [3] | Ki [3] | IC50 [4] | Ki [4] | IC50 [5] | IC50 [6]
